Read-outs that look alike come from different tables or passages of the source.
Test system: HEP-G2 cells
Assay: cells
Conditions: for EC50 / Emax / EC (Emax): Homo sapiens; for EC50: HepG2, 3 h
Method: Assay (I): Glucose utilisation in a human hepatocytes cell line (HEP-G2 cells)
The assay measures indirectly the activity of the respiratory chain in HEP-G2 cells by using D-(3-^3H(N))-glucose. The ^3H-proton will first be released during the metabolism of glucose where it will be incorporated into water. The water is thereafter separated from the D-(3-^3H(N))-glucose by evaporation. Finally, the radioactivity in the water is determined using a Topcounter.
HEP-G2 cells obtained from ATCC (Maryland, USA), are cultured in assay medium (MEM medium) with the following addition 1× non-essential amino acids (M7145, 2 mM glutamine, 100 units/ml penicillin and streptomycin, 0.0075% sodium bicarbonate, 1 mM sodium pyrovate and 0.5% BSA (Bovin Serum Albumin, Sigma Missouri, USA)) at 37° C. and 5% CO2. All media are obtained by Gibco (Life Technologies, Maryland, USA) where not otherwise mentioned.
At day zero the cells are harvested using trypsin-EDTA and washed in assay medium using centrifugation. […] The cells are then incubated at 37° C. and 5% CO2 overnight.
The next day the compounds to be tested are diluted in DMSO (Sigma, Missouri, USA) to 100 times final concentration. They are then diluted to a final concentration in assay medium containing 10 μCi/ml D-(3-^3H(N))-glucose (PerkinElmer Life Sciences Inc., Boston, USA). The medium is removed from the cells and 200 μl of the compound dilutions are added in duplicates. The cells are then incubated for another 3 hours at 37° C. and 5% CO2. Finally the cells are lysed by adding 50 μl 10% TCA (trichloroacetic acid). 300 μl of sterile water is then added to the 24-wells that surrounds the StripPlate wells. The plate is sealed with Top-seal-tape (Packard, PerkinElmer Life Sciences Inc., Boston, USA) and the plate is incubated in a heating cupboard at 50° C. to equilibrium the radioactive water formed in the respiratory chain into the water in the 24-well plate by evaporate. The plates incubate for 8 hours where the heating cupboard is turned off. The top seal is removed when the samples have reached room temperature. One ml scintillation liquid (Packard Microscient, PerkinElmer Life Sciences Inc., Boston, USA) is added to all the samples and the radioactivity is determined using a Topcounter (Packard, PerkinElmer Life Sciences Inc., Boston, USA). Non-specific activity is determined by evaporating 200 μl of the dilution medium containing the D-(3-^3H(N))-glucose into 300 μl sterile water, and total radioactivity is determined by counting 5 μl assay medium with 10 μCi/ml D-(3-^3H(N))-glucose.
The cpm (counts per minute) representing the non-specific radioactivity in the D-(3-^3H(N))-glucose is subtracted from all incubated values. Then mean basal value (samples without any compound added) is subtracted from the values of all stimulated samples (samples added different concentrations of the different test compounds). All these calculations are done using GraphPad Prism 3.0 (GraphPad software, Inc.). The maximal stimulation caused by the test compounds is calculated in percentage of maximal stimulation caused by either DNP or FCCP.
When calculating the concentration-response curve the maximal glucose utilisation stimulated by FCCP or DNP (subtracted non-specific and basal values) is converted to 100% and all the other values are expressed in percentage of this value. Using these percentage values and the compound concentration a concentration-response curve is calculated using sigmoidal dose-response (variable slope) equation (all the calculations are done by GraphPad Prism 3.0 (GraphPad software, Inc.));
Y=Bottom+(Top−Bottom)/(1+10^((LogEC50-X)*slope))
X is the logarithm of the molar concentration of the test compound.
Y is the degree of stimulation caused by the compound measured as a percentage of the maximal stimulation achieved by use of FCCP or DNP.
The results achieved with these concentrations are used to determine the slope in this area using the following equation: […]

[1] = read-out: HEP-G2 EC50, HEP-G2 cells, glucose utilisation, 3 hours incubation
[2] = HepG2, read-out: HEP-G2 Emax (% of FCCP), HEP-G2 cells, maximal stimulation relative to FCCP
[3] = HepG2, read-out: HEP-G2 Emax (μM), HEP-G2 cells, concentration at which Emax is achieved (CEmax)
[4] = HepG2, read-out: HEP-G2 Emax (% of FCCP)
[5] = HepG2, read-out: HEP-G2 Emax (μM)

Structure (SMILES): COc1ccc(O)c([N+](=O)[O-])c1 [Example 2, 4-Methoxy-2-Nitrophenol]
- EC50 [1]: 290 µM
- Emax [2]: 35%
- EC (Emax) [3]: 1000 µM

Structure (SMILES): CC(=O)c1ccc(O)c([N+](=O)[O-])c1 [Example 3, 4-Hydroxy-3-Nitroacetophenone]
- EC50 [1]: 270 µM
- Emax [2]: 75%
- EC (Emax) [3]: 1000 µM

Structure (SMILES): N#Cc1ccc(NC(=O)c2cc(C(F)(F)F)cc(C(F)(F)F)c2)cc1C(F)(F)F [Example 6, N-1-[4-Cyano-3-(Trifluoromethyl)Phenyl]-3,5-Di(Trifluoromethyl)Benzamide]
- EC50 (read-out: HEP-G2 EC50): 1.6 µM
- Emax [4]: 95%
- EC (Emax) [5]: 10 µM
- HEP-G2 Tox (concentration with sign of toxicity (significant drop in glucose utilisation)): Tox 0.1 mM

Structure (SMILES): O=C(Nc1ccc([N+](=O)[O-])cc1Cl)c1ccc2ccccc2c1O [Example 8, 2′-Chloro-1-Hydroxy-4′-Nitro-2-Naphthanilide]
- EC50 (read-out: HEP-G2 EC50): 12 µM
- Emax [4]: 80%
- EC (Emax) [5]: 100 µM

Structure (SMILES): O=C(Nc1ccc(Br)cc1Cl)c1cc(Br)ccc1O [Example 9, N-(2-Chloro-4-Bromophenyl)-5-Bromosalicylanilide]
- EC50 [1]: 2.3 µM
- Emax [2]: 100%
- EC (Emax) [3]: 10 µM

Structure (SMILES): CC(C)(C)c1cc(/C=N/C(C#N)=C(\N)C#N)cc(C(C)(C)C)c1O [Example 17, 2-Amino-S-[(3,5-Di-Tert-Butyl-4-Hydroxybenzylidone)-Amino]-But-2-Enedinitrile]
- EC50 [1]: 6 µM
- Emax [2]: 45%
- EC (Emax) [3]: 30 µM
- HEP-G2 Tox (human, 3 h): Tox 0.1 mM

Structure (SMILES): CCc1cc(C#N)cc2c(C)c(C)[nH]c12 [Example 22, 2,3-Dimethyl-5-Cyano-7-Ethylindole]
- EC50 [1]: 91 µM
- Emax [2]: 100%
- EC (Emax) [3]: 1000 µM

Structure (SMILES): N#Cc1c(-c2ccc(Cl)cc2)[nH]c(C(F)(F)F)c1Br [Example 23, 4-Bromo-2-(4-Chlorophenyl)-5-Trifluoromethyl-1H-Pyrrole-3-Carbonitrile]
- EC50 (read-out: HEP-G2 EC50): 1.75 µM
- Emax [4]: 117%
- EC (Emax) [5]: 30 µM

Structure (SMILES): N#Cc1cc(NC(=O)c2cccc(C(F)(F)F)c2)ccc1Sc1ccccc1 [Example 24, N-(3-Cyano-4-Phenylsulfanyl-Phenyl)-3-Trifluoromethyl-Benzamide]
- EC50 [1]: 42 µM
- Emax [2]: 65%
- EC (Emax) [3]: 100 µM

Structure (SMILES): Cc1cc(C)c2[nH]cc(C=C(C#N)C#N)c2c1 [Example 28, 2-(5,7-Dimethyl-1H-Indol-3-Ylmethylene)-Malononitrile]
- EC50 [1]: 35.5 µM
- Emax [2]: 35%
- EC (Emax) [3]: 300 µM

Structure (SMILES): N#CC(C#N)=Cc1c[nH]c2ccc(Br)cc12 [Example 29, 2-(5-Bromo-1H-Indol-3-Ylmethylene)-Malononitrile]
- EC50 [1]: 13 µM
- Emax [2]: 65%
- EC (Emax) [3]: 30 µM

Structure (SMILES): Cc1ccc2[nH]cc(C=C(C#N)C#N)c2c1 [Example 31, 2-((5-Methyl-1H-Indol-3-Yl)Methylene)Malononitrile]
- EC50 [1]: ≥ 300 µM
- Emax [2]: 0%

Structure (SMILES): CC(C)c1cccc(C(=O)Nc2ccc([N+](=O)[O-])cc2Cl)c1O [Example 38, N-(2-Chloro-4-Nitro-Phenyl)-2-Hydroxy-3-Isopropyl-Benzamide]
- EC50 [1]: 3.35 µM
- Emax [2]: 105%
- EC (Emax) [3]: 30 µM

Structure (SMILES): Cc1ccc(C(C)C)c(O)c1C(=O)Nc1ccc([N+](=O)[O-])cc1Cl [Example 39, N-(2-Chloro-4-Nitro-Phenyl)-2-Hydroxy-3-Isopropyl-6-Methyl-Benzamide]
- EC50 [1]: 6 µM
- Emax [2]: 55%
- EC (Emax) [3]: 10 µM

Structure (SMILES): Cc1c(Br)cc(C(C)C)c(O)c1C(=O)Nc1ccc([N+](=O)[O-])cc1Cl [Example 41, 3-Bromo-N-(2-Chloro-4-Nitro-Phenyl)-6-Hydroxy-5-Isopropyl-2-Methyl-Benzamide]
- EC50 [1]: 4 µM
- Emax [2]: 103%
- EC (Emax) [3]: 30 µM

Structure (SMILES): Cc1cc(C(=O)Nc2ccc([N+](=O)[O-])cc2Cl)c(O)c(C(C)(C)C)c1 [Example 45, 3-Tert-Butyl-N-(2-Chloro-4-Nitro-Phenyl)-2-Hydroxy-5-Methyl-Benzamide]
- EC50 [1]: 0.6 µM
- Emax [2]: 96%
- EC (Emax) [3]: 3 µM

Structure (SMILES): Cc1ccc(C(C)C)c(C(=O)Nc2ccc([N+](=O)[O-])cc2Cl)c1O [Example 46, N-(2-Chloro-4-Nitro-Phenyl)-2-Hydroxy-6-Isopropyl-3-Methyl-Benzamide]
- EC50 [1]: 3 µM
- Emax [2]: 103%
- EC (Emax) [3]: 10 µM

Structure (SMILES): Cc1c(Br)cc(C(C)C)c(O)c1C(=O)Nc1ccc([N+](=O)[O-])cc1C(F)(F)F [Example 57, 3-Bromo-6-Hydroxy-5-Isopropyl-2-Methyl-N-(4-Nitro-2-Trifluoromethyl-Phenyl)-Benzamide]
- EC50 [1]: 0.31 µM
- Emax [2]: 90%
- EC (Emax) [3]: 10 µM

Structure (SMILES): O=C(Nc1cc(C(F)(F)F)cc(C(F)(F)F)c1)c1cc(F)cc(C(F)(F)F)c1 [Example 64, N-(3,5-Bis-Trifluoromethyl-Phenyl)-3-Fluoro-5-Trifluoromethyl-Benzamide]
- EC50 [1]: 2.6 µM
- Emax [2]: 105%
- EC (Emax) [3]: 10 µM

Structure (SMILES): O=C(Nc1ccc([N+](=O)[O-])c(C(F)(F)F)c1)c1cc(F)cc(C(F)(F)F)c1 [Example 65, 3-Fluoro-N-(4-Nitro-3-Trifluoromethyl-Phenyl)-5-Trifluoromethyl-Benzamide]
- EC50 [1]: 5.3 µM
- Emax [2]: 100%
- EC (Emax) [3]: 10 µM

Structure (SMILES): O=C(Nc1cc(C(F)(F)F)cc(C(F)(F)F)c1)c1ccc(C(F)(F)F)c(F)c1 [Example 66, N-(3,5-Bis-Trifluoromethyl-Phenyl)-3-Fluoro-4-Trifluoromethyl-Benzamide]
- EC50 [1]: 4.3 µM
- Emax [2]: 95%
- EC (Emax) [3]: 10 µM

Structure (SMILES): O=C(Nc1ccc([N+](=O)[O-])c(C(F)(F)F)c1)c1ccc(F)c(C(F)(F)F)c1 [Example 67, 4-Fluoro-N-(4-Nitro-3-Trifluoromethyl-Phenyl)-3-Trifluoromethyl-Benzamide]
- EC50 [1]: 5.9 µM
- Emax [2]: 85%
- EC (Emax) [3]: 30 µM

Structure (SMILES): CC(C)(C)c1cc(/C=C(\C#N)c2ccncc2)cc(C(C)(C)C)c1O [Example 78, 3-(3,5-Di-Tert-Butyl-4-Hydroxy-Phenyl)-2-Pyridin-4-Yl-Acrylonitrile]
- EC50 [1]: 2.9 µM
- Emax [2]: 80%
- EC (Emax) [3]: 10 µM

Structure (SMILES): CC(C)(C)c1cc(/C=C(\C#N)c2cc(C(F)(F)F)cc(C(F)(F)F)c2)cc(C(C)(C)C)c1O [Example 79, 2-(3,5-Bis-Trifluoromethyl-Phenyl)-3-(3,5-Di-Tert-Butyl-4-Hydroxy-Phenyl)-Acrylonitrile]
- EC50 [1]: 1 µM
- Emax [2]: 80%
- EC (Emax) [3]: 3 µM
- HEP-G2 Tox (human, 3 h): Tox 0.3 mM
